Assay results as given in US11060087B2, “Synthetic promoters for high throughput screening and gene modulation” (The Regents of the University of California, priority 2016, dated 2021).

B1: BL-3: LAMC2 synthetic promoter generated from the endogenous promoter of LAMC2 (LamS1, SEQ ID NO: 10/11) (nucleic acid, listed as Homo sapiens)
DNA 1: CGGGCCAGGTGTGCGCCCTCCTCGCTGCGAGGGGGAGCGGGCGGCTGCGGGGAGCGATTTTCCAGCCCGGTTTGTGCTCTGTGTGTTTGTCTGCCTCTGGAGGGCTGGGTCCTCCTTATTCACAGGTGAGTCACACCCTGAAACACAGGCTCTCTTCCTGTCAGGACTGAGTCAGGTAGAAGAGTCGTGCGCCCTCCTCGCTGCGAGGGGGAGCGGGCGGCTGCGGGGAGCGATTTTCCAGCCCGGTTTGTGCTCTGTGTGTTTGTCTGCCTCTGGAGGGCTGGGTCCTCCTTATTCACAGGTGAGTCACACCCTGAAACACAGGCTCTCTTCCTGTCAGGACTGAGTCAGGTAGAAGAGTCGTGCGCCCTCCTCGCTGCGAGGGGGAGCGGGCGGCTGCGGGGAGCGATTTTCCAGCCCGGTTTGTGCTCTGTGTGTTTGTCTGCCTCTGGAGGGCTGGGTCCTCCTTATTCACAGGTGAGTCACACCCTGAAACACAGGCTCTCTTCCTGTCAGGACTGAGTCAGGTAGAAGAGTCAAGCTTATAAAACCACCTGATCAAGGAAAAGGAAGGCACAGCGGAGCGCAGAGTGAGAACCACCAACCGGAATTC
DNA 2: CGGTCGGGCCAGGTGTGCGCCCTCCTCGCTGCGAGGGGGAGCGGGCGGCTGCGGGGAGCGATTTTCCAGCCCGGTTTGTGCTCTGTGTGTTTGTCTGCCTCTGGAGGGCTGGGTCCTCCTTATTCACAGGTGAGTCACACCCTGAAACACAGGCTCTCTTCCTGTCAGGACTGAGTCAGGTAGAAGAGTCGTGCGCCCTCCTCGCTGCGAGGGGGAGCGGGCGGCTGCGGGGAGCGATTTTCCAGCCCGGTTTGTGCTCTGTGTGTTTGTCTGCCTCTGGAGGGCTGGGTCCTCCTTATTCACAGGTGAGTCACACCCTGAAACACAGGCTCTCTTCCTGTCAGGACTGAGTCAGGTAGAAGAGTCGTGCGCCCTCCTCGCTGCGAGGGGGAGCGGGCGGCTGCGGGGAGCGATTTTCCAGCCCGGTTTGTGCTCTGTGTGTTTGTCTGCCTCTGGAGGGCTGGGTCCTCCTTATTCACAGGTGAGTCACACCCTGAAACACAGGCTCTCTTCCTGTCAGGACTGAGTCAGGTAGAAGAGTCAAGCTTATAAAACCACCTGATCAAGGAAAAGGAAGGCACAGCGGAGCGCAGAGTGAGAACCACCAACCG

How the values were obtained:
islet neoplasia (INeo) = test: Potentiation of the INeo response to somatostatin analogues; details: preliminary data
From the text: The following are key findings in this field: 1.

BIRC5 = test: High-throughput screening of FDA-approved drug library, BIRC5 synthetic promoter-driven luciferase; assay type: cell-based, human; details: BIRC5SP-Luc2-Puro MiaPaca2 cells, 48 hours after drug administration, Bright-Glo / CellTiter-Glo
From the text: Differentially over-expressed BIRC5 was validated using RT-PCR in rPDAC versus matching non-tumor pancreas (FIG. 8A), as well as western blot assay of ATCC™ PDAC cell lines (FIG. 8B). These preliminary data support the WGCNA that BIRC5 is an actionable gene (AG) for rPDAC. A powerful synthetic promoter for BIRC5, BIRC5-SP (BL-2), was generated (FIG. 8C) and used for BIRC5^SP-Luc2-Puro stable transfection into MiaPaca2 cells, which in turn were used for high-throughput small molecule screening (HTS) of the FDA-approved drug library. BIRC5^SP-Luc2-Puro PDAC cells were plated on 384-well plates and 2100 FDA-approved drugs were applied to cells with a pin plate automatic system. Luciferase expression was measured in a plate reader 48 hours after drug administration using Bright-Glo™. Cell viability of treated cells was measured using CellTiter-Glo™. BIRC5-luciferase signal read outs were normalized using cell viability measurements. Inhibitory drugs include daunorubicin and paclitaxel (Kusukawa N, Ishida H, Tanase K, Ito H, Aoki Y, Ooyama N, et al. [Successful treatment with docetaxel and prednisolone for paxlitaxel and carboplatin-resistant prostate cancer]. Hinyokika kiyo Acta urologica Japonica. 2013; 59(5):301-4. PubMed PMID: 23719139), as well as other novel rPDAC drugs such as bergenin, simvastatin, fluvastatin (Garwood E R, Kumar A S, Baehner F L, Moore D H, Au A, Hylton N, et al. Fluvastatin reduces proliferation and increases apoptosis in women with high grade breast cancer. Breast cancer research and treatment. 2010; 119(1):137-44. doi: 10.1007/s10549-009-0507-x. PubMed PMID: 19728082; PubMed Central PMCID: PMC4087110; Bocci G, Fioravanti A, Orlandi P, Bernardini N, Collecchi P, Del Tacca M, et al. Fluvastatin synergistically enhances the antiproliferative effect of gemcitabine in human pancreatic cancer MIAPaCa-2 cells. British journal of cancer. 2005; 93(3):319-30. doi: 10.1038/sj.bjc.6602720. […]

[1] = system: pancreatic ductal adenocarcinoma cells (PANC-1, MIA PaPc2, AsPc-1, and Capan-2); test: LAMC2 synthetic promoter luciferase reporter assay in PDAC cell lines; assay type: cell-based, human
From the text: FIG. 22 is a graph showing the relative luciferase activity of various synthetic LAMC2 promoters (i.e. LamS1, Lams1E4T, Lams2E4T, and Lams3E4T) and CMV in various cell lines, in accordance with one or more embodiments of the invention.
(§1) FIG. 23 is a graph showing the relative luciferase activity of an endogenous LAMC2 promoter (LAMC2-EP-Luc), a synthetic LAMC2 promoter (LAMC2-SP-Luc), and CMV in various cell lines, in accordance with one or more embodiments of the invention.
LAMC2 is a key oncologic regulator of apoptosis that is also over-expressed in most cancers, including pancreatic cancer, but not in normal cells. In one aspect of the invention, a LAMC2 synthetic promoter (BL-3) generated from the endogenous promoter of LAMC2 is provided that is 1000× more powerful than the endogenous promoter and also more powerful than the cytomegalovirus (CMV) promoter in stimulating gene expression. The promoter competes with the CMV promoter, which is non-specific for cancer. The BL-3 synthetic promoter is more highly specific for cancer, especially pancreatic cancer, since it is not expressed in normal cells, including islets of Langerhans, and therefore is less toxic. The technique to generate the LAMC2 synthetic promoter (BL-3) and its uses are similar to U.S. patent application Ser. No. 14/396,967, which describes a synthetic BL-1 promoter for the insulin gene. However, the synthetic BL-1 promoter is expressed in islets of Langerhans, which therefore can lead to […] and diabetes as a toxic effect.

[2] = system: human primary pancreatic epithelial cells (HPPE); test: LAMC2 synthetic promoter luciferase reporter assay in normal cells; assay type: cell-based; details: HPPE and human pancreatic duct epithelial cells (FIG. 23)
From the text: as §1

| Molecule | effect on the INeo response to SAs (islet neoplasia (INeo)) | effect on BIRC5-luciferase signal normalized using cell viability (BIRC5) | further results |
| --- | --- | --- | --- |
| C[C@H](N)COC(=O)[C@H](CCCCN)NC(=O)Cc1c(-c2ccc3ccccc3c2)[nH]c2c1ccc1ccccc12 [SSTR5 small molecule agonist] | potentiates the INeo response to SAs |  |  |
| COc1c(O)cc2c(c1O)[C@@H]1O[C@H](CO)[C@@H](O)[C@H](O)[C@H]1OC2=O [bergenin] |  | Inhibitory |  |
| COc1cccc2c1C(=O)c1c(O)c3c(c(O)c1C2=O)C[C@@](O)(C(C)=O)C[C@@H]3O[C@H]1C[C@H](N)[C@H](O)[C@H](C)O1 [daunorubicin] |  | Inhibitory |  |
| CN(C)C(=N)N=C(N)N [metformin] | potentiate the INeo response to SAs |  |  |
| CC(=O)O[C@H]1C(=O)[C@@]2(C)[C@H]([C@H](OC(=O)c3ccccc3)[C@]3(O)C[C@H](OC(=O)[C@H](O)[C@@H](NC(=O)c4ccccc4)c4ccccc4)C(C)=C1C3(C)C)[C@]1(OC(C)=O)CO[C@@H]1C[C@@H]2O [paclitaxel] |  | Inhibitory |  |
| B1 |  |  | more powerful than the endogenous promoter in stimulating gene expression ([1]; LAMC2 synthetic promoter vs endogenous LAMC2 promoter): 1000 ×; relative luciferase activity in comparison to endogenous LAMC2 promoter and CMV promoter ([1]; PANC-1, MIA PaPc2, AsPc-1, Capan-2 (FIG. 23)): greatest amount of activity; relative luciferase activity among synthetic LAMC2 promoters and CMV ([1]; various cell lines (FIG. 22)): greatest amount of luciferase activity; relative luciferase activity in normal pancreatic cells [2]: no activity |
